From ChEMBL document CHEMBL1287663 (Bioorg Med Chem, 2010) come the findings set out here.

The nature of data set [1]: Inhibition of HDAC.
Data set [2] has as its system HeLa. Kind of data set: Antiproliferative activity against human HeLa cells. Type of data set: functional, cell-based.
For data set [3], the target named is Inosine-5'-monophosphate dehydrogenase 1 (Homo sapiens, UniProt P20839). In words: Inhibition of human IMPDH1 expressed in Escherichia coli strain BL21(DE3) after 60 mins.
For data set [4], the target named is Inosine-5'-monophosphate dehydrogenase 2 (Homo sapiens, UniProt P12268). Kind of data set: Inhibition of human IMPDH2 expressed in Escherichia coli strain BL21(DE3) after 60 mins.
The species entered for data set [5] is Homo sapiens. Kind of data set: Selectivity ratio of IC50 for human IMPDH1 to IC50 for human IMPDH2.
Data set [6] concerns K562. Kind of data set: Cytotoxicity against human K562 cells after 72 hrs by trypan blue exclusion assay. As to conditions: K562, 72 h. The class given is functional, cell-based.
In data set [7] the test system is IMPDH2. Kind of data set: Selectivity ratio of IC50 for human K562 cells to IC50 for human IMPDH2. Type of data set: ADME, cell-based. Conditions: K562 cells versus IMPDH2 enzyme, read-out: Ratio IC50.
Data set [8] has as its system K562. Kind of data set: Induction of human K562 cells differentiation assessed as hemoglobin/genomic DNA level at 2 uM after 72 hrs relative to untreated control. The class given is functional.
For data set [9], the system named is K562. Kind of data set: Induction of human K562 cells differentiation assessed as hemoglobin/genomic DNA level at 4 uM after 72 hrs relative to untreated control. Type of data set: functional.
Data set [10] relates to K562. Kind of data set: Induction of human K562 cells differentiation assessed as hemoglobin/genomic DNA level at 8 uM after 72 hrs relative to untreated control. Type of data set: functional.
The subject of data set [11] is K562. Kind of data set: Induction of human K562 cells differentiation assessed as hemoglobin/genomic DNA level at 16 uM after 72 hrs relative to untreated control. Type of data set: functional.
Data set [12] deals with K562. In words: Induction of human K562 cells differentiation assessed as hemoglobin/genomic DNA level at 32 uM after 72 hrs relative to untreated control. Type of data set: functional.
In data set [13] the test system is K562. Kind of data set: Induction of human K562 cells differentiation assessed as hemoglobin/genomic DNA level at 1 uM after 72 hrs relative to untreated control. Type of data set: functional.
For data set [14], the system named is K562. Kind of data set: Induction of human K562 cells differentiation assessed as hemoglobin/genomic DNA level at 0.25 uM after 72 hrs relative to untreated control. The class given is functional.
The subject of data set [15] is K562. Kind of data set: Induction of human K562 cells differentiation assessed as hemoglobin/genomic DNA level at 0.5 uM after 72 hrs relative to untreated control. Type of data set: functional.

The structures appear in SMILES notation.

Inosine-5'-monophosphate dehydrogenase 1, sequence (P20839 whole entry): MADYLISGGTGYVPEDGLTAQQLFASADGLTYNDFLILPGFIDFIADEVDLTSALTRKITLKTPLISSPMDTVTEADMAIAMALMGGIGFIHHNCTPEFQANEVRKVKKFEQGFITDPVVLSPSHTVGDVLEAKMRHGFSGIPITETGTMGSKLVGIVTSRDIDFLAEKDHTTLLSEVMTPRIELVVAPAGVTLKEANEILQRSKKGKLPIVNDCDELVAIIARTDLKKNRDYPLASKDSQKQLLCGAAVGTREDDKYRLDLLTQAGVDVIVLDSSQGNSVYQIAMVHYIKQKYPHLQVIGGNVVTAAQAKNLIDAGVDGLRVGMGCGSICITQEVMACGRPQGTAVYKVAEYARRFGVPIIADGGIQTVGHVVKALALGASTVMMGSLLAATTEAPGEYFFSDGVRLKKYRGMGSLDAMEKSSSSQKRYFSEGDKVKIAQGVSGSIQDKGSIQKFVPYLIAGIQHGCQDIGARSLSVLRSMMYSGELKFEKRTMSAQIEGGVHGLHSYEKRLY

`COc1c(C)c2c(c(OC(C)=O)c1C/C=C(\C)CCC(=O)NO)C(=O)OC2`: the 50% inhibitory concentration (IC50) in [1] is 900 nM; in [2] it was 1500 nM.
For `CCCCCCCCCCCCOc1c(C/C=C(\C)CCC(=O)NO)c(OC)c(C)c2c1C(=O)OC2`, in that order: 500 nM and 1000 nM.
As for `COc1c(C)c2c(c(O)c1C/C=C(\C)CCCO)C(=O)OC2`, the IC50 in [3] came to 770 nM; in data set [4], 790 nM; in data set [6] it was 3900 nM. The Ratio IC50 in [5] came out at 0.97. Also, the selectivity ratio in data set [7] stood at 4.9. Moreover, the Ratio is 0.7 in [8]; 1.3 in data set [9]; 2.5 in data set [10]; 3.8 in data set [11]; 4.7 in [12].
Turning to `COc1c(C)c2c(c(OC)c1C/C=C(\C)CCC(=O)O)C(=O)OC2`, the half-maximal inhibitory concentration (IC50) in data set [3] is 67000 nM; in data set [4], 72000 nM; in data set [6], over 50000 nM. Besides, the Ratio IC50 in data set [5] was 0.93. Also, the Ratio in [8] amounted to 1.2; in data set [9], 1.1; in data set [10], 1.1; in data set [11], 1.4; in data set [12] it was 1.
With `C/C(=C\Cc1c(O)c(C)c2c(c1O)C(=O)OC2)CCC(=O)O`, the IC50 in data set [3] is 150 nM; in [4] it was 170 nM; in [6] it was 8200 nM. The Ratio IC50 in [5] came to 0.88. Moreover, in data set [7], the selectivity ratio amounted to 48. Besides, the Ratio was found to be 1.4 in [13]; 1.1 in data set [8]; 1.1 in [9]; 1.8 in data set [11]; 3.1 in data set [12].
Consider `COC(=O)CC/C(C)=C/Cc1c(O)c2c(c(C)c1OC)COC2=O`, for which the IC50 in data set [3] stood at 1500 nM; in data set [4], 1400 nM; in data set [6] it was 730 nM. Further, in [5], the Ratio IC50 worked out at 1.1. Further, the selectivity ratio in data set [7] is 0.52. Moreover, the Ratio in data set [14] is on record as 1; in [15], 1; in data set [13] it was 2.1; in [8], 3.5; in data set [9], 4.9; in data set [10] it was 5.6.
Consider `COc1c(C)c2c(c(O)c1C/C=C(\C)CCC(=O)O)C(=O)OC2` [MYCOPHENOLIC ACID], for which the IC50 in data set [3] came to 19 nM.
As to `COc1c(C)c2c(c(O)c1C/C=C(\C)CCC(=O)NO)C(=O)OC2` [MYCOPHENOLIC HYDROXAMIC ACID], the half-inhibitory concentration (IC50) in data set [1] stood at 1000 nM; in [2], 2000 nM; in data set [3] it was 350 nM; in data set [4] it was 420 nM; in data set [6], 2100 nM. In data set [5], the Ratio IC50 worked out at 0.83. Besides, the selectivity ratio in [7] amounted to 5. For the same molecule, the Ratio was 0.8 in [13]; 1 in data set [8]; 2.9 in data set [9]; 3.2 in data set [10]; 1.8 in data set [11]; 1.7 in data set [12].
As to `COc1c(C)c2c(c(OC)c1C/C=C(\C)CCC(=O)NO)C(=O)OC2`, the values for the half-inhibitory concentration (IC50) in [1] and in data set [2] were 900 nM and 50000 nM, respectively.
Regarding `COc1c(C)c2c(c(OC(C)=O)c1C/C=C(\C)CCC(=O)O)C(=O)OC2`, the half-maximal inhibitory concentration (IC50) in data set [3] was 4100 nM; in data set [4], 4100 nM; in data set [6] it was 590 nM. Also, in data set [5], the Ratio IC50 amounted to 1. Further, the selectivity ratio in data set [7] amounted to 0.14. In addition, the Ratio in data set [15] is recorded as 1.8; in [13] it was 2.9; in data set [8] it was 4.2; in data set [9] it was 5.3; in data set [10] it was 6.
